23 compounds from patent publication US9663496B2, “AMPK-activating heterocyclic compounds and methods for using the same” (Rigel Pharmaceuticals, Inc., priority 2010, dated 2017) can be followed below.

For the assay, the target named is AMPK. Put plainly: AMPK activation, enzyme-linked immunosorbent assay. Conditions: EC50 for AMPK activation, ELISA. Format: biochemical. Summed up: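 Activator screen performed per well-known kit methods.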
(ELISA stands for enzyme-linked immunosorbent assay.)
As usually defined, the EC50 is the concentration at which the effect is half-maximal. In turn, `COc1ccc(CC2CCN(C(=O)c3ccc(C(=O)NC4CCN(Cc5ccc(C#N)cc5)CC4)nc3)CC2)cc1` [Compound 131, N-(1-(4-cyanobenzyl)piperidin-4-yl)-5-(4-(4-methoxybenzyl)piperidine-1-carbonyl)picolinamide] displayed an EC50 of under 500 nM. The result for `CC(C)(c1ccccc1)N1CCN(C(=O)c2ccc(C(=O)NC3CCN(Cc4ccc(C#N)cc4)CC3)nc2)CC1` [Compound 133, N-(1-(4-cyanobenzyl)piperidin-4-yl)-5-(4-(2-phenylpropan-2-yl)piperazine-1-carbonyl)picolinamide] reads under 500 nM. The figure for `N#Cc1ccc(CN2CCC(NC(=O)c3ccc(C(=O)N4CCC(c5ccc(Cl)cc5)CC4)cn3)CC2)cc1` [Compound 134, 5-(4-(4-chlorophenyl)piperidine-1-carbonyl)-N-(1-(4-cyanobenzyl)piperidin-4-yl)picolinamide] is under 500 nM. Regarding `N#Cc1ccc(CN2CCC(NC(=O)c3ccc(C(=O)N4CCC(Oc5ccc(C#N)cc5)CC4)cn3)CC2)cc1` [Compound 135, N-(1-(4-cyanobenzyl)piperidin-4-yl)-5-(4-(4-cyanophenoxy)piperidine-1-carbonyl)picolinamide], the EC50 was under 500 nM. The figure for `N#Cc1ccc(CN2CCC(NC(=O)c3ccc(C(=O)N4CCC(C(=O)c5ccc(F)cc5)CC4)cn3)CC2)cc1` [Compound 136, N-(1-(4-cyanobenzyl)piperidin-4-yl)-5-(4-(4-fluorobenzoyl)piperidine-1-carbonyl)picolinamide] is under 500 nM; for `N#Cc1ccc(CN2CCC(NC(=O)c3ccc(C(=O)N4CCCC(Oc5ccc(C#N)cc5)C4)cn3)CC2)cc1` (centres unmarked) [Compound 137, N-(1-(4-cyanobenzyl)piperidin-4-yl)-5-(3-(4-cyanophenoxy)piperidine-1-carbonyl)picolinamide] it is under 500 nM; for `N#Cc1ccc(CN2CCC(NC(=O)c3ccc(C(=O)N4CCC(C(F)c5ccc(F)cc5)CC4)cn3)CC2)cc1` (centres unmarked) [Compound 138, N-(1-(4-cyanobenzyl)piperidin-4-yl)-5-(4-(fluoro(4-fluorophenyl)methyl)piperidine-1-carbonyl)picolinamide] it is under 500 nM. The result for `N#Cc1ccc(CN2CCC(NC(=O)c3ccc(NC4CCN(c5ccc(Cl)cc5)CC4)cn3)CC2)cc1` [Compound 139, 5-(1-(4-chlorophenyl)piperidin-4-ylamino)-N-(1-(4-cyanobenzyl)piperidin-4-yl)picolinamide] reads under 500 nM. The result for `N#Cc1ccc(CN2CCC(NC(=O)c3ccc(C(=O)N4CCC(C(O)c5ccc(F)cc5)CC4)cn3)CC2)cc1` (centres unmarked) [Compound 142, N-(1-(4-cyanobenzyl)piperidin-4-yl)-5-(4-((4-fluorophenyl)(hydroxy)methyl)piperidine-1-carbonyl)picolinamide] reads under 500 nM; that for `N#Cc1ccc(CN2CCc3ccc(NC(=O)c4ccc(C(=O)NCc5ccc(F)cc5)cn4)cc3C2)cc1` [Compound 144, N2-(2-(4-cyanobenzyl)-1,2,3,4-tetrahydroisoquinolin-7-yl)-N5-(4-fluorobenzyl)pyridine-2,5-dicarboxamide], 500 to 1000 nM; that for `COc1ccc(CC2CCN(C(=O)c3ccc(C(=O)NC4CCN(Cc5ccc(C#N)cc5)CC4)nc3)CC2)cc1F` [Compound 146, N-(1-(4-cyanobenzyl)piperidin-4-yl)-5-(4-(3-fluoro-4-methoxybenzyl)piperidine-1-carbonyl)picolinamide], under 500 nM. Compound `COc1cccc(CC2CCN(C(=O)c3ccc(C(=O)NC4CCN(Cc5ccc(C#N)cc5)CC4)nc3)CC2)c1` [Compound 147, N-(1-(4-cyanobenzyl)piperidin-4-yl)-5-(4-(3-methoxybenzyl)piperidine-1-carbonyl)picolinamide] gave a 50% effective concentration (EC50) of under 500 nM. The result for `N#Cc1ccc(CN2CCC(NC(=O)c3ccc(C(=O)NCCOc4ccc(F)cc4)cn3)CC2)cc1` [Compound 149, N2-(1-(4-cyanobenzyl)piperidin-4-yl)-N5-(2-(4-fluorophenoxy)ethyl)pyridine-2,5-dicarboxamide] reads 500 to 1000 nM; that for `N#Cc1ccc(O[C@H]2CC[C@@H](NC(=O)c3ccc(C(=O)N4CCN(Cc5ccc(F)cc5)CC4)cn3)CC2)cc1` [Compound 150, N-(cis-4-(4-cyanophenoxy)cyclohexyl)-5-(4-(4-fluorobenzyl)piperazine-1-carbonyl)picolinamide], under 500 nM.

On to `N#Cc1ccc(O[C@H]2CC[C@@H](NC(=O)c3ccc(C(=O)N4CCC(C(=O)c5ccc(F)cc5)CC4)cn3)CC2)cc1` [Compound 151], for which the EC50 is under 500 nM. The compound `N#Cc1ccc(CN2CCC(NC(=O)c3ccc(C(=O)N4CCCCC4Cc4ccc(F)cc4)cn3)CC2)cc1` (centres unmarked) [Compound 153, N-(1-(4-cyanobenzyl)piperidin-4-yl)-5-(2-(4-fluorobenzyl)piperidine-1-carbonyl)picolinamide] showed a concentration giving a half-maximal response (EC50) of 1000 to 5000 nM. For `N#Cc1ccc(CN2CCC(NC(=O)c3ccc(C(=O)N4CCC(C(=O)c5ccc(Cl)cc5)CC4)cn3)CC2)cc1` [Compound 154, 5-(4-(4-chlorobenzoyl)piperidine-1-carbonyl)-N-(1-(4-cyanobenzyl)piperidin-4-yl)picolinamide], the concentration giving a half-maximal response (EC50) is under 500 nM.

Take `N#Cc1ccc(CN2CCC(NC(=O)c3ccc(C(=O)N4CCC(Oc5cccc(C#N)c5)CC4)cn3)CC2)cc1` [Compound 155, N-(1-(4-cyanobenzyl)piperidin-4-yl)-5-(4-(3-cyanophenoxy)piperidine-1-carbonyl)picolinamide]: the concentration for a half-maximal effect (EC50) is under 500 nM.

`N#Cc1ccc(CN2CCC(NC(=O)c3ccc(C(=O)N4CCC(Oc5ccc(C#N)c(Cl)c5)CC4)cn3)CC2)cc1` [Compound 156, 5-(4-(3-chloro-4-cyanophenoxy)piperidine-1-carbonyl)-N-(1-(4-cyanobenzyl)piperidin-4-yl)picolinamide] yielded a concentration giving a half-maximal response (EC50) of under 500 nM. The result for `N#Cc1ccc(CN2CCC(NC(=O)c3ccc(C(=O)N4CCC(Oc5ccc(C(F)(F)F)cc5)CC4)cn3)CC2)cc1` [Compound 157, N-(1-(4-cyanobenzyl)piperidin-4-yl)-5-(4-(4-(trifluoromethyl)phenoxy)piperidine-1-carbonyl)picolinamide] reads under 500 nM; that for `N#Cc1ccc(CN2CCC(NC(=O)c3ccc(C(=O)N4CCC(Oc5ccc(F)c(F)c5)CC4)cn3)CC2)cc1` [Compound 158, N-(1-(4-cyanobenzyl)piperidin-4-yl)-5-(4-(3,4-difluorophenoxy)piperidine-1-carbonyl)picolinamide], under 500 nM. The figure for `N#Cc1ccc(CN2CCC(NC(=O)c3ncc(C(=O)N4CCN(Cc5ccc(F)cc5)CC4)cc3C#CCNC(=O)COCCOCCOCCOCCNC(=O)CCCC[C@@H]3SC[C@@H]4NC(=O)N[C@@H]43)CC2)cc1` [Compound 159, N-(1-(4-cyanobenzyl)piperidin-4-yl)-3-(5,20-dioxo-24-((3aS,4S,6aR)-2-oxohexahydro-1H-thieno[3,4-d]imidazol-4-yl)-7,10,13,16-tetraoxa-4,19-diazatetracos-1-ynyl)-5-(4-(4-fluorobenzyl)piperazine-1-carbonyl)picolinamide] is 1000 to 5000 nM; for `COc1ccc(CN2CCC(NC(=O)c3ccc(C(=O)N4CCC(C(=O)c5ccc(F)cc5)CC4)cn3)CC2)cc1` [Compound 160, 5-(4-(4-fluorobenzoyl)piperidine-1-carbonyl)-N-(1-(4-methoxybenzyl)piperidin-4-yl)picolinamide] it is under 500 nM.
